Results taken from ChEMBL document CHEMBL1201862, “PubChem BioAssay data set” (2004).
Active and inactive are the calls of the source. Unless noted, no cut-off for these calls is given here.

Legend:
HEK293 [1] = experiment: SAR Analysis of small molecule inhibitors of T-cell specific antigen receptor-induced NF-kB activation in a HEK-293T cell line using a luminescence assay - Set 2. [Related pubchem assays (depositor defined):AID435003, AID435012, AID489026]; assay type: functional, cell-based; details: Homo sapiens
Jurkat = experiment: SAR Analysis of small molecule inhibitors of T-cell specific antigen receptor-induced NF-kB activation in a Jurkat cell line using a luminescence assay - Set 2. [Related pubchem assays (depositor defined):AID435003, AID435012, AID465]; assay type: functional, cell-based; details: Homo sapiens
HEK293 [2] = experiment: HEK293T cell viability loss, resazurin readout – resazurin fluorescence, cytotoxicity control for NF-kB activator project, SAR follow-up (AID 493251); assay type: functional, cell-based; details: Homo sapiens
NIH3T3 = experiment: mammalian cell viability counter-check – Alamar Blue, fluconazole, dry powder, cytotoxicity control for antifungal drug resistance project, dose response (AID 488809); assay type: functional, cell-based; details: Mus musculus
[3] = biological target: T1, Endoribonuclease toxin MazF (Escherichia coli K-12, UniProt P0AE70); experiment: activation of MazEF endoribonuclease cleavage – biochemical, fluorescence, single-stranded RNA substrate, uHTS hits, dose response (AID 588481); assay type: functional
[4] = biological target: T1, Endoribonuclease toxin MazF; experiment: substrate-only fluorescence increase artefacts – biochemical, single-stranded RNase substrate, counter-screen for MazEF activator project, dose response (AID 588502); assay type: functional
Beta Lactamase = Beta Lactamase (Pseudomonas aeruginosa, UniProt Q932Y6); experiment: BLA reporter interference, concentration series – BLA reporter cells, FRET fluorescence, artefact control for TLR9-MyD88 binding inhibitor project, dose response (AID 588341); assay type: cell-based;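 note: cell based assay in CHO-K1 cells stably expressing beta-lactamase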
CHO = CHO cell viability loss, potency – luminescence, cytotoxicity control for TLR9-MyD88 binding inhibitor project, dose response (AID 588339); assay type: functional, cell-based, hamster; details: Cricetulus griseus;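 note: CHO cells stably coexpressing TLR9 and MyD88 fusions from primary screen; compound exposure lasted 48 hours before viability readout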
Protein Tat = biological target: T2, Protein Tat (Human immunodeficiency virus type 1 group M subtype B (isolate HXB2)(HIV-1), UniProt P04608); assay type: functional;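 note: tat binding to TAR RNA read out by fluorescence polarization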
T2 sequence (P04608 whole entry): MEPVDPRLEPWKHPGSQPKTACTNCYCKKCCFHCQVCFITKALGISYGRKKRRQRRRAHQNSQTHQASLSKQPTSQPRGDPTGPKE

[5] = viability loss in THP-1 monocytes – THP-1 cells, cytotoxicity control for Vif-APOBEC3G degradation inhibitor project, dose response (AID 1117359); assay type: functional; details: THP-1
[6] = biological target: T3, Short transient receptor potential channel 4 (Mus musculus, UniProt Q9QUQ5); experiment: potency of mouse TRPC4 calcium flux blockers – cell-based, HEK293 TRPC4/mu-opioid, DAMGO stimulus, Fluo-4, dose response (AID 492994); assay type: functional
T3 sequence (Q9QUQ5 whole entry): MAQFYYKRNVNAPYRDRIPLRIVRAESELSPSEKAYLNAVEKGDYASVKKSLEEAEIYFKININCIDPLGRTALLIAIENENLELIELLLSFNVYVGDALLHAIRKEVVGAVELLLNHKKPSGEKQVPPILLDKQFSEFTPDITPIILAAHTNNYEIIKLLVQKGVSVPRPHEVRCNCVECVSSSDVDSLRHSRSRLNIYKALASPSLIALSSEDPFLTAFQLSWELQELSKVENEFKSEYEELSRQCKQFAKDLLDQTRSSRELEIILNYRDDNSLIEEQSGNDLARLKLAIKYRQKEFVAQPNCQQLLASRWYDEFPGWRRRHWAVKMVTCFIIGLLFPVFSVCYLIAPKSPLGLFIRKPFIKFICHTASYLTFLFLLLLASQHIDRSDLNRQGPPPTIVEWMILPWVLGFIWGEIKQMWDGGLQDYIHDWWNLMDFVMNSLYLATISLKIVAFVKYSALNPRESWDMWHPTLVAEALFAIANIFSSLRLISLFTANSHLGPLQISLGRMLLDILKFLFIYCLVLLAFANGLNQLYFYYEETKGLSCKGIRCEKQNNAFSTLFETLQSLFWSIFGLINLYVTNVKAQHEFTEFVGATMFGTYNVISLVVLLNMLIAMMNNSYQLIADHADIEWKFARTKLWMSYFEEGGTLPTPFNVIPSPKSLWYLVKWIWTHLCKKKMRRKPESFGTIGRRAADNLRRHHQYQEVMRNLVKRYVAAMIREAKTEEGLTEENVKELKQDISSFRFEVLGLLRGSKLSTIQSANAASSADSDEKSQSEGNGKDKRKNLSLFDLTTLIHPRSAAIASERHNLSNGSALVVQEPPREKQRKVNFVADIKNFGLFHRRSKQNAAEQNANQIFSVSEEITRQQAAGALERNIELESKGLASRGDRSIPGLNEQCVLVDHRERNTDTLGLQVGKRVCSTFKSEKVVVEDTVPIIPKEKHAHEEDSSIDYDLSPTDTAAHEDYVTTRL

[7] = biological target: T3, Short transient receptor potential channel 4; experiment: SAR Analysis for the identification of selective inhibits of the transient receptor potential cation channel C4 (TRPC4): Automated Electrophysiology_2. [Related pubchem assays (depositor defined):AID2256]; assay type: functional
Keap1/Nrf2 = Keap1/Nrf2 (Homo sapiens, UniProt Q14145); experiment: disruptors of Keap1 binding to Nrf2 peptide – biochemical, fluorescence polarization, cherry-picked samples, dose response (AID 588683)
[8] = biological target: T4, RNA-binding protein pos-1 (Caenorhabditis elegans, UniProt G5EF15); experiment: disruptors of C. elegans POS-1 RNA interaction – biochemical, fluorescence polarization, dose response (AID 1964);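 note: purified POS-1 fused to maltose binding protein made in E. coli; potency of compounds blocking POS-1 binding to fluorescent RNA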
T4 sequence (G5EF15 whole entry): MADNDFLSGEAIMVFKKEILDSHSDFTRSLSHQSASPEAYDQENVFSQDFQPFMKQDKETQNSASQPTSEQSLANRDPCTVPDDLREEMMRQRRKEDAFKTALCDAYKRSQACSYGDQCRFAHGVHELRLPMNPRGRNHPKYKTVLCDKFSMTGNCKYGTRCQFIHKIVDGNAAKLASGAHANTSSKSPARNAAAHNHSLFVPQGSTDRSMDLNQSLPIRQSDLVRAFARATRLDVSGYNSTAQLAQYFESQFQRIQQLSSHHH

[9] = biological target: T5, Zinc finger protein mex-5 (Caenorhabditis elegans, UniProt Q9XUB2); experiment: potency of MEX-5 RNA-binding blockers – biochemical, C. elegans, fluorescence polarization, dose response (AID 1960)
T5 sequence (Q9XUB2 whole entry): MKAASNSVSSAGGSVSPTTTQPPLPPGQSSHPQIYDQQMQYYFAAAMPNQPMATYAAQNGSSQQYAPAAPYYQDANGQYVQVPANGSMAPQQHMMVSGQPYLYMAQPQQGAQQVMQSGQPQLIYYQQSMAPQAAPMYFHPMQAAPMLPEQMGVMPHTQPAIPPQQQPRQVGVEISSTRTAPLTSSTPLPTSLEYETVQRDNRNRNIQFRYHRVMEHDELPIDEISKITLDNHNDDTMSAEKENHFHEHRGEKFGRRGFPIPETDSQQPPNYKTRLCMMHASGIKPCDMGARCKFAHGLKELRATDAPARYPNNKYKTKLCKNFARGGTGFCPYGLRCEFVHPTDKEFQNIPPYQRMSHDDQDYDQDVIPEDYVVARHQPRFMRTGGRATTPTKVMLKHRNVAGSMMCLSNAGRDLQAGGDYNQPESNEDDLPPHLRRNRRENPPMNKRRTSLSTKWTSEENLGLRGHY

[10] = biological target: T6, Mannose-6-phosphate isomerase (Homo sapiens, UniProt P34949); experiment: MPI enzyme activity inhibition – biochemical, fluorescence intensity, coupled assay, primary screen (AID 1209)
T6 sequence (P34949 whole entry): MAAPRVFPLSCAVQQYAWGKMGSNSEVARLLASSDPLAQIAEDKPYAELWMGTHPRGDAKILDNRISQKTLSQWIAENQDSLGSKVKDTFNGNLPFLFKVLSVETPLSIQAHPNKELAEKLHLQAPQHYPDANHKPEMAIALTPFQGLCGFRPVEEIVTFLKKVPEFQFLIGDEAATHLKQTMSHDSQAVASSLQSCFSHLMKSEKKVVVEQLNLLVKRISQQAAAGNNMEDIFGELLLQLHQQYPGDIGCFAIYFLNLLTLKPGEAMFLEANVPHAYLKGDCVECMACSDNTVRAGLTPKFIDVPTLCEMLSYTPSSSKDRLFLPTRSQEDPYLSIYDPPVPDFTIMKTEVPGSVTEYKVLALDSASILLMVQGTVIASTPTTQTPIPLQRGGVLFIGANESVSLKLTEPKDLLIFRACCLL

[11] = biological target: T7, Apoptotic protease-activating factor 1 (Homo sapiens, UniProt O14727); assay type: functional
T7 sequence (O14727 whole entry): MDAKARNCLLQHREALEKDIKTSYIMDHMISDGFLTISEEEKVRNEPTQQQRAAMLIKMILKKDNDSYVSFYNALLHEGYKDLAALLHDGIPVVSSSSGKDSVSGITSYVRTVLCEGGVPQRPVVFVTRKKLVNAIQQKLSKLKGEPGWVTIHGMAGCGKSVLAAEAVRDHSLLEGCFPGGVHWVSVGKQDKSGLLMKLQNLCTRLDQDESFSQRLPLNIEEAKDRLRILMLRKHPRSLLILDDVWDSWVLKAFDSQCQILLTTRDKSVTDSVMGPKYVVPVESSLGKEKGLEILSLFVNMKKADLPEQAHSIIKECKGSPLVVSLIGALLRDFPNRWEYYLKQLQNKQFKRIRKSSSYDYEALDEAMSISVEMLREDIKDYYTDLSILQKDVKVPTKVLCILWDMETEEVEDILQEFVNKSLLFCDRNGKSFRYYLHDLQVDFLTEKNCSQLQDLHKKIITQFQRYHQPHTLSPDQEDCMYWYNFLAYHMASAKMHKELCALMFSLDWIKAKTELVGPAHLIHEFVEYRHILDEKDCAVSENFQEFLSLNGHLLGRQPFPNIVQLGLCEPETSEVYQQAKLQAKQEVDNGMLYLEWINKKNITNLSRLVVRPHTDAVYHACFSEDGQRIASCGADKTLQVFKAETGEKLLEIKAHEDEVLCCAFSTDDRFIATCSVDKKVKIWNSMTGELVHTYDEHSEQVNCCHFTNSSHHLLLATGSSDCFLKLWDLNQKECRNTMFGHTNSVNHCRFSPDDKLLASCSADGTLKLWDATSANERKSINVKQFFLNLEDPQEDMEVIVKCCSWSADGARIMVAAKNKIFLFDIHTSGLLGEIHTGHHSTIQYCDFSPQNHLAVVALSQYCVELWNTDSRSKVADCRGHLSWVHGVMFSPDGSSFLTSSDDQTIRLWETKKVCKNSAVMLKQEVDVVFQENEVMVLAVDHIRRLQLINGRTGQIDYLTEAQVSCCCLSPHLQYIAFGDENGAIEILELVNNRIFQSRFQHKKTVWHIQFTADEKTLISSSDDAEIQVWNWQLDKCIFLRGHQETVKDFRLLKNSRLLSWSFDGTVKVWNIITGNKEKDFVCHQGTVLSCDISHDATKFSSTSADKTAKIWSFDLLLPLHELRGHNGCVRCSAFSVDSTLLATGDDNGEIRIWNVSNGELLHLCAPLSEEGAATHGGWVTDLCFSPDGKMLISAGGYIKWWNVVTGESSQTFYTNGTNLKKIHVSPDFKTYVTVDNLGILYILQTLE

[12] = PKA-R1A complex activators, counter-screen titration – biochemical, Cy5-IP20 fluorescence polarization, 1536-well, triplicate, counter-screen for PKA-R2B activator project, dose response (AID 504896)
[13] = Fluorescence polarization-based biochemical high throughput dose response assay for activators of the Protein Kinase A-R2B (PKA-R2B) complex. [Related pubchem assays (depositor defined):AID504700, AID504704, AID504796, AID504797]

T1 sequence (P0AE70 whole entry): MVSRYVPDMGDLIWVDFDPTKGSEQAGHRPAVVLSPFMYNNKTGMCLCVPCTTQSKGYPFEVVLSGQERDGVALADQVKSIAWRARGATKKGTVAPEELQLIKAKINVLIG
Chain of Keap1/Nrf2 (Q16236 whole entry, the tested form may be a part): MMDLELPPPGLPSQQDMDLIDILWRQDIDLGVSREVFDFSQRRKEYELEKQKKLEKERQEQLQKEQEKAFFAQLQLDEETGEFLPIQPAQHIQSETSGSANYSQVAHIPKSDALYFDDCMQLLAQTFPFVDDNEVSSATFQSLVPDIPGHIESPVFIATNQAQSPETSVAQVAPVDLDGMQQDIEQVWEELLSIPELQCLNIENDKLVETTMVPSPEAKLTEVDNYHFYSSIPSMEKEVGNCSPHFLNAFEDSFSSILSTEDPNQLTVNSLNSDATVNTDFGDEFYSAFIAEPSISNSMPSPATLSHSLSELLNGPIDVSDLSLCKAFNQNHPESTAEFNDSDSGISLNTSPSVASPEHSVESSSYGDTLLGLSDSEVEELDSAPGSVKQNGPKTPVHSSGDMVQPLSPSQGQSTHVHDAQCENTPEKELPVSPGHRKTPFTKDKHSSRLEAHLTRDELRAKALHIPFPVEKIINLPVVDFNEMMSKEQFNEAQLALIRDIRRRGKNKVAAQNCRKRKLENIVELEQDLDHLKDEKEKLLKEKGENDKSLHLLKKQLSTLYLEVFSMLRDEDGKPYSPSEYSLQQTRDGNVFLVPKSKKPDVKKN
Chain of Keap1/Nrf2 (Q14145 whole entry, the tested form may be a part): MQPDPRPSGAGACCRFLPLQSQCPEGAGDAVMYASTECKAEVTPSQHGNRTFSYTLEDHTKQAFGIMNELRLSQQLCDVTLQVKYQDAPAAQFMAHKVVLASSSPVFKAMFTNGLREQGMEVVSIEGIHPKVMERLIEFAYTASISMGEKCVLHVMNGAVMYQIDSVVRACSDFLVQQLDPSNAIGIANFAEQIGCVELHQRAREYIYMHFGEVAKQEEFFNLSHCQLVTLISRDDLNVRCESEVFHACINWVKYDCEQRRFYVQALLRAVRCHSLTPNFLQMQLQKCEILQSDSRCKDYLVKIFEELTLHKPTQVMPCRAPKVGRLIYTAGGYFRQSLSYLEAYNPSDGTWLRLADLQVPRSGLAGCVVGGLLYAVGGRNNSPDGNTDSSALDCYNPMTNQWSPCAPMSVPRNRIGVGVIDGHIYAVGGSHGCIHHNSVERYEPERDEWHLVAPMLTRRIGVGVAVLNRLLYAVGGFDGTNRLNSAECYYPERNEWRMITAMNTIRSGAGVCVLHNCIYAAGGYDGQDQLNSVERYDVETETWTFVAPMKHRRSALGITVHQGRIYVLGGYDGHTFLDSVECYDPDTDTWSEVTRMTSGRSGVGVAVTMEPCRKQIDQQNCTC
Chain of Beta Lactamase (Q932Y6 whole entry, the tested form may be a part): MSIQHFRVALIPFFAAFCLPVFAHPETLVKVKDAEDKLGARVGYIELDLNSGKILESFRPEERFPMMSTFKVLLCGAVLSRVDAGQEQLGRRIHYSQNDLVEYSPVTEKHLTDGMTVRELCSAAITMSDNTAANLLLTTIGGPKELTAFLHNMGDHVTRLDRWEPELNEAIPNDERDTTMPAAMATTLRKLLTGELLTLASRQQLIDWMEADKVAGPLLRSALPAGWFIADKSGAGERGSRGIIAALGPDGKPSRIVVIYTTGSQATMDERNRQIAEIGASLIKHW

For `CNC(=O)CCc1nc(-c2ccccc2)no1`, the IC50 (HEK293 [1]) was > 80 µM (inactive), the IC50 (Jurkat) was > 79 µM (inactive) and the IC50 (HEK293 [2]) was > 80 µM (inactive).

For `O=C(Cn1nc(-c2ccccc2)c2ccccc21)N1CCc2ccccc2C1`, the AC50 (NIH3T3) was 34.9 µM (active).

In the case of `CCCn1c(-c2cccs2)nc2c1c(=O)[nH]c(=O)n2Cc1ccccc1`, the EC50 [3] was > 99 µM (inactive) and the EC50 [4] was > 99 µM (inactive).

In the case of `N#Cc1ccc(-c2ccco2)nc1SCC(=O)c1ccc(Cl)cc1`, the IC50 (Beta Lactamase) was 10.1 µM (inactive), the IC50 (CHO) was 16.7 µM (inactive) and the IC50 (Protein Tat) was > 100 µM (active). The CC50 [5] was > 40 µM (active).

In the case of `Cc1cc(N2CCCC(O)C2)nc2ccccc12` (centres undefined), the IC50 [6] was 7.32 µM (active) and the IC50 [7] was 9.4 µM (active).

For `Cc1cc(C)c[n+](-c2[n-]c(=O)sc2C=NN=C(S)Nc2ccccc2)c1`, the AC50 (Keap1/Nrf2) was 39.6 µM (active), the EC50 [8] was 9.61 µM (active) and the EC50 [9] was 9.02 µM (inconclusive).

For `O=C(N/N=C/c1ccc(-c2ccccc2[N+](=O)[O-])o1)c1cccnc1`, the IC50 [10] was > 50 µM (not active) and the IC50 [11] was 39.2 µM (active).

For `O=C(O)c1sccc1SCc1ccc(Cl)cc1Cl`, the EC50 [12] was > 114 µM (inactive) and the EC50 [13] was 66.9 µM (inactive).
